# Measured values from ChEMBL document CHEMBL3390848, “Affinity selection and sequence-activity relationships of HIV-1 membrane fusion inhibitors directed at the drug-resistant variants” (Medchemcomm, 2010).
# pEC50: −log10 of the molar value. Residues, ends and D or L forms follow the SMILES beside them.
# Legend:
# [1] = system: Human immunodeficiency virus 1; test: Binding affinity to HIV1 His-tagged N-terminal heptad repeat of envelope glycoprotein gp41 assessed as recovery of N36-drug complex after 2 hrs by LC-MS analysis; set-up: concentration or dose not given beside the values
# [2] = system: Human immunodeficiency virus 1; test: Antiviral activity against HIV1 NL4-3 harboring gp41 D36G mutant infected in human HeLa cells expressing CD4-LTR-beta-gal assessed as inhibition of viral replication after 48 hrs by MAGI assay; assay type: functional, organism-based
# [3] = system: Human immunodeficiency virus 1; test: Thermal stability of HIV1 envelope glycoprotein gp41 His-tagged N-terminal heptad repeat N36-drug complex assessed as thermal unfolding transition state by measuring molar ellipticity at 4 to 90 degC by circular dichroic spectra analysis
# [4] = system: Human immunodeficiency virus 1; test: Thermal stability of HIV1 envelope glycoprotein gp41 His-tagged N-terminal heptad repeat N54-drug complex assessed as thermal unfolding transition state by measuring molar ellipticity at 4 to 90 degC by circular dichroic spectra analysis
# [5] = system: Human immunodeficiency virus 1; test: Binding affinity to HIV1 His-tagged N-terminal heptad repeat of envelope glycoprotein gp41 assessed as recovery of N54-drug complex after 2 hrs by LC-MS analysis; set-up: concentration or dose not given beside the values
SMILES,Activity [1],pEC50 [2],Tm [3],Tm [4],Activity [5]
CC[C@H](C)[C@H](NC(=O)[C@H](CC(C)C)NC(=O)[C@H](CCC(=O)O)NC(=O)[C@H](CCC(=O)O)NC(=O)[C@@H](NC(=O)[C@H](CCCCN)NC(=O)[C@H](CCCCN)NC(=O)[C@@H](NC(=O)[C@H](Cc1ccc(O)cc1)NC(=O)[C@H](CCC(=O)O)NC(=O)[C@H](CCC(=O)O)NC(=O)[C@@H](NC(=O)[C@H](CCCCN)NC(=O)[C@H](CCCCN)NC(=O)[C@H](CC(=O)O)NC(=O)[C@H](Cc1c[nH]c2ccccc12)NC(=O)[C@H](CCC(=O)O)NC(=O)[C@H](CCC(=O)O)NC(=O)[C@H](Cc1c[nH]c2ccccc12)NC(C)=O)[C@@H](C)CC)[C@@H](C)O)[C@@H](C)CC)C(=O)N[C@@H](CCCCN)C(=O)N[C@@H](CCCCN)C(=O)N[C@@H](CO)C(=O)N[C@@H](CCC(=O)O)C(=O)N[C@@H](CCC(=O)O)C(=O)N[C@@H](C)C(=O)N[C@@H](CCC(N)=O)C(=O)N[C@@H](CCCCN)C(=O)N[C@@H](CCCCN)C(=O)N[C@@H](CC(N)=O)C(=O)N[C@@H](CCC(=O)O)C(=O)N[C@@H](CCC(=O)O)C(=O)N[C@@H](CCC(=O)O)C(=O)N[C@@H](CC(C)C)C(=O)N[C@@H](CCCCN)C(=O)N[C@@H](CCCCN)C(N)=O (Ac-WEEWDKKIEEYTKKIEELIKKSEEAQKKNEEELKK-NH2),6.6%,8.80,76.1 °C,,
CC[C@H](C)[C@H](NC(=O)[C@H](CC(C)C)NC(=O)[C@H](CCC(=O)O)NC(=O)[C@H](CCC(=O)O)NC(=O)[C@@H](NC(=O)[C@H](CCCCN)NC(=O)[C@H](CCCCN)NC(=O)[C@@H](NC(=O)[C@H](Cc1ccc(O)cc1)NC(=O)[C@H](CCC(=O)O)NC(=O)[C@H](CCC(=O)O)NC(=O)[C@@H](NC(=O)[C@H](CCCCN)NC(=O)[C@H](CCCCN)NC(=O)[C@H](CC(=O)O)NC(=O)[C@H](Cc1c[nH]c2ccccc12)NC(=O)[C@H](CCC(=O)O)NC(=O)[C@H](CCC(=O)O)NC(=O)[C@H](Cc1c[nH]c2ccccc12)NC(C)=O)[C@@H](C)CC)[C@@H](C)O)[C@@H](C)CC)C(=O)N[C@@H](CCCCN)C(=O)N[C@@H](CCCCN)C(=O)N[C@@H](CO)C(=O)N[C@@H](CCC(=O)O)C(=O)N[C@@H](CCC(=O)O)C(=O)N[C@@H](CC(=O)O)C(=O)N[C@@H](CCC(N)=O)C(=O)N[C@@H](CCCCN)C(=O)N[C@@H](CCCCN)C(=O)N[C@@H](CC(N)=O)C(=O)N[C@@H](CCC(=O)O)C(=O)N[C@@H](CCC(=O)O)C(=O)N[C@@H](CCC(=O)O)C(=O)N[C@@H](CC(C)C)C(=O)N[C@@H](CCCCN)C(=O)N[C@@H](CCCCN)C(N)=O (Ac-WEEWDKKIEEYTKKIEELIKKSEEDQKKNEEELKK-NH2),4.5%,8.54,75.1 °C,,
CC[C@H](C)[C@H](NC(=O)[C@H](CC(C)C)NC(=O)[C@H](CCC(=O)O)NC(=O)[C@H](CCC(=O)O)NC(=O)[C@@H](NC(=O)[C@H](CC(C)C)NC(=O)[C@H](CO)NC(=O)[C@@H](NC(=O)[C@H](Cc1ccc(O)cc1)NC(C)=O)[C@@H](C)O)[C@@H](C)CC)C(=O)N[C@@H](CCCCN)C(=O)N[C@@H](CCCCN)C(=O)N[C@@H](CO)C(=O)N[C@@H](CCC(=O)O)C(=O)N[C@@H](CCC(=O)O)C(=O)N[C@H](C(=O)N[C@@H](CCC(N)=O)C(=O)N[C@@H](CCCCN)C(=O)N[C@@H](CCCCN)C(=O)N[C@@H](CC(N)=O)C(=O)N[C@@H](CCC(=O)O)C(=O)N[C@@H](CCC(=O)O)C(=O)N[C@@H](CCC(=O)O)C(=O)N[C@@H](CC(C)C)C(=O)N[C@@H](CCCCN)C(=O)N[C@@H](CCCCN)C(=O)N[C@@H](CC(C)C)C(=O)N[C@@H](CCC(=O)O)C(=O)N[C@@H](CCC(=O)O)C(=O)N[C@@H](Cc1c[nH]c2ccccc12)C(=O)N[C@@H](C)C(=O)N[C@@H](CCCCN)C(=O)N[C@@H](CCCCN)C(=O)N[C@@H](Cc1c[nH]c2ccccc12)C(=O)N[C@@H](CC(N)=O)C(=O)N[C@@H](Cc1c[nH]c2ccccc12)C(=O)N[C@@H](Cc1ccccc1)C(N)=O)C(C)C (Ac-YTSLIEELIKKSEEVQKKNEEELKKLEEWAKKWNWF-NH2),,8.54,,70.5 °C,6.1%
CC[C@H](C)[C@H](NC(=O)[C@H](CC(C)C)NC(=O)[C@H](CCC(=O)O)NC(=O)[C@H](CCC(=O)O)NC(=O)[C@@H](NC(=O)[C@H](CC(C)C)NC(=O)[C@H](CO)NC(=O)[C@@H](NC(=O)[C@H](Cc1ccc(O)cc1)NC(C)=O)[C@@H](C)O)[C@@H](C)CC)C(=O)N[C@@H](CCCCN)C(=O)N[C@@H](CCCCN)C(=O)N[C@@H](CO)C(=O)N[C@@H](CCC(=O)O)C(=O)N[C@@H](CCC(=O)O)C(=O)N[C@@H](Cc1c[nH]c2ccccc12)C(=O)N[C@@H](CCC(N)=O)C(=O)N[C@@H](CCCCN)C(=O)N[C@@H](CCCCN)C(=O)N[C@@H](CC(N)=O)C(=O)N[C@@H](CCC(=O)O)C(=O)N[C@@H](CCC(=O)O)C(=O)N[C@@H](CCC(=O)O)C(=O)N[C@@H](CC(C)C)C(=O)N[C@@H](CCCCN)C(=O)N[C@@H](CCCCN)C(=O)N[C@@H](CC(C)C)C(=O)N[C@@H](CCC(=O)O)C(=O)N[C@@H](CCC(=O)O)C(=O)N[C@@H](Cc1c[nH]c2ccccc12)C(=O)N[C@@H](C)C(=O)N[C@@H](CCCCN)C(=O)N[C@@H](CCCCN)C(=O)N[C@@H](Cc1c[nH]c2ccccc12)C(=O)N[C@@H](CC(N)=O)C(=O)N[C@@H](Cc1c[nH]c2ccccc12)C(=O)N[C@@H](Cc1ccccc1)C(N)=O (Ac-YTSLIEELIKKSEEWQKKNEEELKKLEEWAKKWNWF-NH2),,8.60,,68.8 °C,8.1%
CC[C@H](C)[C@H](NC(=O)[C@H](CC(C)C)NC(=O)[C@H](CCC(=O)O)NC(=O)[C@H](CCC(=O)O)NC(=O)[C@@H](NC(=O)[C@H](CC(C)C)NC(=O)[C@H](CO)NC(=O)[C@@H](NC(=O)[C@H](Cc1ccc(O)cc1)NC(C)=O)[C@@H](C)O)[C@@H](C)CC)C(=O)N[C@@H](CCCCN)C(=O)N[C@@H](CCCCN)C(=O)N[C@@H](CO)C(=O)N[C@@H](CCC(=O)O)C(=O)N[C@@H](CCC(=O)O)C(=O)N[C@@H](Cc1ccc(O)cc1)C(=O)N[C@@H](CCC(N)=O)C(=O)N[C@@H](CCCCN)C(=O)N[C@@H](CCCCN)C(=O)N[C@@H](CC(N)=O)C(=O)N[C@@H](CCC(=O)O)C(=O)N[C@@H](CCC(=O)O)C(=O)N[C@@H](CCC(=O)O)C(=O)N[C@@H](CC(C)C)C(=O)N[C@@H](CCCCN)C(=O)N[C@@H](CCCCN)C(=O)N[C@@H](CC(C)C)C(=O)N[C@@H](CCC(=O)O)C(=O)N[C@@H](CCC(=O)O)C(=O)N[C@@H](Cc1c[nH]c2ccccc12)C(=O)N[C@@H](C)C(=O)N[C@@H](CCCCN)C(=O)N[C@@H](CCCCN)C(=O)N[C@@H](Cc1c[nH]c2ccccc12)C(=O)N[C@@H](CC(N)=O)C(=O)N[C@@H](Cc1c[nH]c2ccccc12)C(=O)N[C@@H](Cc1ccccc1)C(N)=O (Ac-YTSLIEELIKKSEEYQKKNEEELKKLEEWAKKWNWF-NH2),,8.64,,67.7 °C,4.9%
CC[C@H](C)[C@H](NC(=O)[C@H](CC(C)C)NC(=O)[C@H](CCC(=O)O)NC(=O)[C@H](CCC(=O)O)NC(=O)[C@@H](NC(=O)[C@H](CC(C)C)NC(=O)[C@H](CO)NC(=O)[C@@H](NC(=O)[C@H](Cc1ccc(O)cc1)NC(C)=O)[C@@H](C)O)[C@@H](C)CC)C(=O)N[C@@H](CCCCN)C(=O)N[C@@H](CCCCN)C(=O)N[C@H](C(=O)N[C@@H](CCC(=O)O)C(=O)N[C@@H](CCC(=O)O)C(=O)N[C@@H](CCC(N)=O)C(=O)N[C@@H](CCC(N)=O)C(=O)N[C@@H](CCCCN)C(=O)N[C@@H](CCCCN)C(=O)N[C@@H](CC(N)=O)C(=O)N[C@@H](CCC(=O)O)C(=O)N[C@@H](CCC(=O)O)C(=O)N[C@@H](CCC(=O)O)C(=O)N[C@@H](CC(C)C)C(=O)N[C@@H](CCCCN)C(=O)N[C@@H](CCCCN)C(=O)N[C@@H](CC(C)C)C(=O)N[C@@H](CCC(=O)O)C(=O)N[C@@H](CCC(=O)O)C(=O)N[C@@H](Cc1c[nH]c2ccccc12)C(=O)N[C@@H](C)C(=O)N[C@@H](CCCCN)C(=O)N[C@@H](CCCCN)C(=O)N[C@@H](Cc1c[nH]c2ccccc12)C(=O)N[C@@H](CC(N)=O)C(=O)N[C@@H](Cc1c[nH]c2ccccc12)C(=O)N[C@@H](Cc1ccccc1)C(N)=O)C(C)C (Ac-YTSLIEELIKKVEEQQKKNEEELKKLEEWAKKWNWF-NH2),,9.52,,76 °C,9.4%
CC[C@H](C)[C@H](NC(=O)[C@H](CC(C)C)NC(=O)[C@H](CCC(=O)O)NC(=O)[C@H](CCC(=O)O)NC(=O)[C@@H](NC(=O)[C@H](CC(C)C)NC(=O)[C@H](CO)NC(=O)[C@@H](NC(=O)[C@H](Cc1ccc(O)cc1)NC(C)=O)[C@@H](C)O)[C@@H](C)CC)C(=O)N[C@@H](CCCCN)C(=O)N[C@@H](CCCCN)C(=O)N[C@@H](Cc1ccc(O)cc1)C(=O)N[C@@H](CCC(=O)O)C(=O)N[C@@H](CCC(=O)O)C(=O)N[C@@H](CCC(N)=O)C(=O)N[C@@H](CCC(N)=O)C(=O)N[C@@H](CCCCN)C(=O)N[C@@H](CCCCN)C(=O)N[C@@H](CC(N)=O)C(=O)N[C@@H](CCC(=O)O)C(=O)N[C@@H](CCC(=O)O)C(=O)N[C@@H](CCC(=O)O)C(=O)N[C@@H](CC(C)C)C(=O)N[C@@H](CCCCN)C(=O)N[C@@H](CCCCN)C(=O)N[C@@H](CC(C)C)C(=O)N[C@@H](CCC(=O)O)C(=O)N[C@@H](CCC(=O)O)C(=O)N[C@@H](Cc1c[nH]c2ccccc12)C(=O)N[C@@H](C)C(=O)N[C@@H](CCCCN)C(=O)N[C@@H](CCCCN)C(=O)N[C@@H](Cc1c[nH]c2ccccc12)C(=O)N[C@@H](CC(N)=O)C(=O)N[C@@H](Cc1c[nH]c2ccccc12)C(=O)N[C@@H](Cc1ccccc1)C(N)=O (Ac-YTSLIEELIKKYEEQQKKNEEELKKLEEWAKKWNWF-NH2),,8.30,,61.1 °C,4.7%
